Patent US9549932B2, “2-(morpholin-4-yl)-1,7-naphthyridines” (BAYER PHARMA AKTIENGESELLSCHAFT, priority 2014, dated 2017)

These compounds were tested against full-length human ATR protein (Homo sapiens (Human), UniProt Q13535) (assay: Binding assay ATR (TR-FRET tracer displacement)). Details: tracer A, TR-FRET; read-out: ATR binding (tracer A) IC50.
Summary of the method: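 Full-length human GST-ATR co-purified with ATRIP, pre-complexed 30 min at 22 °C with anti-GST-Tb antibody, then pre-bound with compound 10 min. Tracer A or B added (2 µl of 100 nM solution), 30 min at 22 °C.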

Sequence of full-length human ATR protein (Q13535 other isoform, or with tags, fused parts or gaps): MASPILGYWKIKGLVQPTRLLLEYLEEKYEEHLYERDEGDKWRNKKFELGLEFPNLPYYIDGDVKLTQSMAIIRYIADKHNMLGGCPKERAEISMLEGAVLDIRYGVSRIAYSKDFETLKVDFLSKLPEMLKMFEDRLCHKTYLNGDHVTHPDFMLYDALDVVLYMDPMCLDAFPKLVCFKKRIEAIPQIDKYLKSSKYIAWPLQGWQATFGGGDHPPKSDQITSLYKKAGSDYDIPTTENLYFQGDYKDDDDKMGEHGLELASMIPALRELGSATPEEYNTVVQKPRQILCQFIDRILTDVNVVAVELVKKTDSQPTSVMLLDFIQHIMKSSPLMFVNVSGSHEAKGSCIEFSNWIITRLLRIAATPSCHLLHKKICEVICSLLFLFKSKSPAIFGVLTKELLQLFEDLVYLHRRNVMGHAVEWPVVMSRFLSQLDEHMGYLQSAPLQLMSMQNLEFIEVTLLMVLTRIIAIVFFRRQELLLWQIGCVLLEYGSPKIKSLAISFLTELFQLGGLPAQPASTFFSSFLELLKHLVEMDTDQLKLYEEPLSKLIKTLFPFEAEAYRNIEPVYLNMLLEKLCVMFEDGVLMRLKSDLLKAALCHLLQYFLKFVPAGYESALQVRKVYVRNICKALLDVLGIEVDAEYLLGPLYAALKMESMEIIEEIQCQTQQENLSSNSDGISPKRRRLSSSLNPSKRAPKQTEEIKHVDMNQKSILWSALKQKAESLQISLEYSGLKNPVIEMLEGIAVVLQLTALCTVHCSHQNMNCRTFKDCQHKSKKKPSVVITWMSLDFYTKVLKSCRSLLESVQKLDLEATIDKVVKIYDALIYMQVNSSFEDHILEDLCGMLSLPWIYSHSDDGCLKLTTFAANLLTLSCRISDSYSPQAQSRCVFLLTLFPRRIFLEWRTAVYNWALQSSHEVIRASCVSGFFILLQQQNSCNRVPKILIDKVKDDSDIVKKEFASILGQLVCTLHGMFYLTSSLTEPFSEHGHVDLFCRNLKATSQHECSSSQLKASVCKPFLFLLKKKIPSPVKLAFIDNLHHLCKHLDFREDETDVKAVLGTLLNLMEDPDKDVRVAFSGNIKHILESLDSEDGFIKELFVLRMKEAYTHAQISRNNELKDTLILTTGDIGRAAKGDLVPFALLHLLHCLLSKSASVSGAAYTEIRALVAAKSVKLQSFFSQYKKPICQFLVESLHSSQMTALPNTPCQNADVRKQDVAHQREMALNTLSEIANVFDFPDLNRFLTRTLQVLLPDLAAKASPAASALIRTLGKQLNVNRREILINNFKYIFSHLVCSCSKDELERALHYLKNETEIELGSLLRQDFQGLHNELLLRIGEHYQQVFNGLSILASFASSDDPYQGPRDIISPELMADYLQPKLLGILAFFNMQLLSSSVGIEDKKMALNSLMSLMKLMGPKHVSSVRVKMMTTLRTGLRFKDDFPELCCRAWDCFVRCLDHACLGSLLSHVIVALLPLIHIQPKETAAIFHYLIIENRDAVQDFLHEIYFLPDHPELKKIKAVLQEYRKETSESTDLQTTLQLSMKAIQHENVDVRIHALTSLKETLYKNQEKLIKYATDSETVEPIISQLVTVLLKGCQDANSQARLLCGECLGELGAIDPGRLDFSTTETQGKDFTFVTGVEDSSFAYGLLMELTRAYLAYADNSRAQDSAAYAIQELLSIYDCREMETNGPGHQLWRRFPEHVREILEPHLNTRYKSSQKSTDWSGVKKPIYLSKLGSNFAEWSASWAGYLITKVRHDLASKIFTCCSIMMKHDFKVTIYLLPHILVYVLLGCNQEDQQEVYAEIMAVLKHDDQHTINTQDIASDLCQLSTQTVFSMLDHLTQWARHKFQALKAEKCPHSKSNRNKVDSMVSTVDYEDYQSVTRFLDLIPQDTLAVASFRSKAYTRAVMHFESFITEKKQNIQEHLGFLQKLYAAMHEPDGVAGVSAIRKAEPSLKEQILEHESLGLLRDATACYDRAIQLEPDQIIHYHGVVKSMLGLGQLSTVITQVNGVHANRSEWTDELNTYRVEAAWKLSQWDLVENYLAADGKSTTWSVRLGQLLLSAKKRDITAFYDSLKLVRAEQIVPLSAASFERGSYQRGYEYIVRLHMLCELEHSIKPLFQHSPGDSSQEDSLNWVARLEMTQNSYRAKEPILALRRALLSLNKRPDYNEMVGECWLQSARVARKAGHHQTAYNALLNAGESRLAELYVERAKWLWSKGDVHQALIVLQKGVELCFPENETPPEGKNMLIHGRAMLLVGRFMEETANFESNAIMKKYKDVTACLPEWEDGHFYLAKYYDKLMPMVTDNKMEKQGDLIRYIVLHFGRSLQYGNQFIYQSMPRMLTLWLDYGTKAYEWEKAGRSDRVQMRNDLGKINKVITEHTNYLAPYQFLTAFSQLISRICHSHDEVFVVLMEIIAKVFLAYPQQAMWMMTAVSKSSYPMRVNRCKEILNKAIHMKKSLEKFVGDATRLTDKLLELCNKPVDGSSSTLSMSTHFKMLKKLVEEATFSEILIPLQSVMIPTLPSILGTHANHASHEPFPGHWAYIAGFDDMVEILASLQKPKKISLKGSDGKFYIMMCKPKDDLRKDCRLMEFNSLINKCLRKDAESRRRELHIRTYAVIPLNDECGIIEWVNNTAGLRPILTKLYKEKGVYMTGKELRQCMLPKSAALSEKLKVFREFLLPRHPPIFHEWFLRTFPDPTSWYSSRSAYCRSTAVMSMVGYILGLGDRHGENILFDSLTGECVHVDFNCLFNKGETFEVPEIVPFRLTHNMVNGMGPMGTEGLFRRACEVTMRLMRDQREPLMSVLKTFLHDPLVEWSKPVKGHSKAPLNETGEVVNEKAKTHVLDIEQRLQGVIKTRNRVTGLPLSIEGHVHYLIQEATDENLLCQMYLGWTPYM
Sequence of full-length human ATR protein (Q8WXE1 other isoform, or with tags, fused parts or gaps partner): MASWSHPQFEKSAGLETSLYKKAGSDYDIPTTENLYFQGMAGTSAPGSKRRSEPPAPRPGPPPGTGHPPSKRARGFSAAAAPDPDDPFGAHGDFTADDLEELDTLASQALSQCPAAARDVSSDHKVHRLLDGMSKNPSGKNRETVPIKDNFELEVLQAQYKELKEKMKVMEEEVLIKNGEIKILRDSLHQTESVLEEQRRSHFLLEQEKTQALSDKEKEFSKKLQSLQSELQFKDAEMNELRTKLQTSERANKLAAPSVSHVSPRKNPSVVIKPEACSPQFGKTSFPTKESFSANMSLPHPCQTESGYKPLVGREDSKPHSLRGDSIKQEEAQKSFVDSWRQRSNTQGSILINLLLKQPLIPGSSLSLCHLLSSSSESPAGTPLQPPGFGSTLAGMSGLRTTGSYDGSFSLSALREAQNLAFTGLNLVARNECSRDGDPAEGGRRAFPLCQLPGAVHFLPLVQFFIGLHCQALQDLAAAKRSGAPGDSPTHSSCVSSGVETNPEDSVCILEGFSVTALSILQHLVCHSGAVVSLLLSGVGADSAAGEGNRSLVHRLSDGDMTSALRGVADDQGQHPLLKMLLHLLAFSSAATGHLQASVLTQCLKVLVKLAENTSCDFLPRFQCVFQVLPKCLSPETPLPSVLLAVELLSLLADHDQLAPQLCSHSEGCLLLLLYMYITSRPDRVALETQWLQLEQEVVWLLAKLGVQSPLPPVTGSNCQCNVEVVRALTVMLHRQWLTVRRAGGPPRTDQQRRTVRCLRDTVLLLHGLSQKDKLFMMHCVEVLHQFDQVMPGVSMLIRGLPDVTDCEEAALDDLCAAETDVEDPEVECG

Q: `C[C@@H]1COCCN1c1cc(-c2cc(C(F)(F)F)nn2C)c2ccnc(-c3ccn[nH]3)c2n1` [Example 98, 2-[(3R)-3-methylmorpholin-4-yl]-4-[1-methyl-3-(trifluoromethyl)-1H-pyrazol-5-yl]-8-(1H-pyrazol-5-yl)-1,7-naphthyridine] was tested. Which IC50 did it give?
A: 13.1 nM

Q: How did the IC50 turn out when `Cc1ccsc1-c1cc(N2CCOC[C@H]2C)nc2c(-c3ccn[nH]3)nccc12` [Example 99, 2-[(3R)-3-methylmorpholin-4-yl]-4-(3-methyl-2-thienyl)-8-(1H-pyrazol-5-yl)-1,7-naphthyridine] was run?
A: 6.38 nM

Q: Which IC50 does the source give for `Cc1ccc(-c2cc(N3CCOC[C@H]3C)nc3c(-c4ccn[nH]4)nccc23)s1` [Example 100, 2-[(3R)-3-methylmorpholin-4-yl]-4-(5-methyl-2-thienyl)-8-(1H-pyrazol-5-yl)-1,7-naphthyridine] here?
A: 16.5 nM

Q: For `Cc1cscc1-c1cc(N2CCOC[C@H]2C)nc2c(-c3ccn[nH]3)nccc12` [Example 101, 2-[(3R)-3-methylmorpholin-4-yl]-4-(4-methyl-3-thienyl)-8-(1H-pyrazol-5-yl)-1,7-naphthyridine], which IC50 is on record?
A: 11.3 nM

Q: For `C[C@@H]1COCCN1c1cc(-c2sccc2Cl)c2ccnc(-c3ccn[nH]3)c2n1` [Example 102, 4-(3-chloro-2-thienyl)-2-[(3R)-3-methylmorpholin-4-yl]-8-(1H-pyrazol-5-yl)-1,7-naphthyridine], which IC50 is on record?
A: 12.3 nM

Q: For `Cc1sccc1-c1cc(N2CCOC[C@H]2C)nc2c(-c3ccn[nH]3)nccc12` [Example 103, 2-[(3R)-3-methylmorpholin-4-yl]-4-(2-methyl-3-thienyl)-8-(1H-pyrazol-5-yl)-1,7-naphthyridine], which IC50 is on record?
A: 10.1 nM

Q: Which IC50 does the source give for `C[C@@H]1COCCN1c1cc(-c2ccnc3[nH]ccc23)c2ccnc(-c3ccn[nH]3)c2n1` [Example 104, 2-[(3R)-3-methylmorpholin-4-yl]-8-(1H-pyrazol-5-yl)-4-(1H-pyrrolo[2,3-b]pyridin-4-yl)-1,7-naphthyridine] here?
A: 14.1 nM

Q: How did the IC50 turn out when `Cc1noc(C)c1-c1cc(N2CCOC[C@H]2C)nc2c(-c3ccn[nH]3)nccc12` [Example 105, 4-(3,5-dimethyl-1,2-oxazol-4-yl)-2-[(3R)-3-methylmorpholin-4-yl]-8-(1H-pyrazol-5-yl)-1,7-naphthyridine] was run?
A: 8.67 nM

Q: How did the IC50 turn out when `COc1nccc(-c2cc(N3CCOC[C@H]3C)nc3c(-c4ccn[nH]4)nccc23)c1Cl` [Example 106, 4-(3-chloro-2-methoxypyridin-4-yl)-2-[(3R)-3-methylmorpholin-4-yl]-8-(1H-pyrazol-5-yl)-1,7-napthyridine] was run?
A: 13.1 nM

Q: For `C[C@@H]1COCCN1c1cc(C2=CCSCC2)c2ccnc(-c3ccn[nH]3)c2n1` [Example 108, 4-(3,6-dihydro-2H-thiopyran-4-yl)-2-[(3R)-3-methylmorpholin-4-yl]-8-(1H-pyrazol-5-yl)-1,7-naphthyridine], which IC50 is on record?
A: 11.5 nM

Q: How did the IC50 turn out when `CC1CCN(c2cc(N3CCOC[C@H]3C)nc3c(-c4ccn[nH]4)nccc23)CC1` [Example 109, 2-[(3R)-3-methylmorpholin-4-yl]-4-(4-methylpiperidin-1-yl)-8-(1H-pyrazol-5-yl)-1,7-naphthyridine] was run?
A: 9.14 nM

Q: How did the IC50 turn out when `C[C@@H]1COCCN1c1cc(-c2ccnn2C(C)(C)C)c2ccnc(-c3ccn[nH]3)c2n1` [Example 110, 4-(1-tert-butyl-1H-pyrazol-5-yl)-2-[(3R)-3-methylmorpholin-4-yl]-8-(1H-pyrazol-5-yl)-1,7-naphthyridine] was run?
A: 13.5 nM

Q: For `Cc1cc(-c2cc(N3CCOC[C@H]3C)nc3c(-c4ccn[nH]4)nccc23)on1` [Example 112, 2-[(3R)-3-methylmorpholin-4-yl]-4-(3-methyl-1,2-oxazol-5-yl)-8-(1H-pyrazol-5-yl)-1,7-naphthyridine], which IC50 is on record?
A: 4.74 nM

Q: `CCn1nc(C)cc1-c1cc(N2CCOC[C@H]2C)nc2c(-c3ccn[nH]3)nccc12` [Example 113, 4-(1-ethyl-3-methyl-1H-pyrazol-5-yl)-2-[(3R)-3-methylmorpholin-4-yl]-8-(1H-pyrazol-5-yl)-1,7-naphthyridine] was tested. Which IC50 did it give?
A: 5.71 nM

Q: `Cc1cnn(C)c1-c1cc(N2CCOC[C@H]2C)nc2c(-c3ccn[nH]3)nccc12` [Example 114, 4-(1,4-dimethyl-1H-pyrazol-5-yl)-2-[(3R)-3-methylmorpholin-4-yl]-8-(1H-pyrazol-5-yl)-1,7-naphthyridine] was tested. Which IC50 did it give?
A: 7.35 nM

Q: For `CSc1ccc(-c2cc(N3CCOC[C@H]3C)nc3c(-c4ccn[nH]4)nccc23)c(C)n1` [Example 115, 4-[2-methyl-6-(methylsulfanyl)pyridin-3-yl]-2-[(3R)-3-methylmorpholin-4-yl]-8-(1H-pyrazol-5-yl)-1,7-naphthyridine], which IC50 is on record?
A: 7.44 nM

Q: How did the IC50 turn out when `Cc1nc(S(C)(=N)=O)ccc1-c1cc(N2CCOC[C@H]2C)nc2c(-c3ccn[nH]3)nccc12` (stereo partly drawn) [Example 116, 4-[2-methyl-6-(S-methylsulfonimidoyl)pyridin-3-yl]-2-[(3R)-3-methylmorpholin-4-yl]-8-(1H-pyrazol-5-yl)-1,7-naphthyridine] was run?
A: 9.51 nM

Q: Which IC50 does the source give for `CCCn1nccc1-c1cc(N2CCOC[C@H]2C)nc2c(-c3ccn[nH]3)nccc12` [Example 117, 2-[(3R)-3-methylmorpholin-4-yl]-4-(1-propyl-1H-pyrazol-5-yl)-8-(1H-pyrazol-5-yl)-1,7-naphthyridine] here?
A: 8.16 nM

Q: For `C[C@@H]1COCCN1c1cc(-c2cnc3n2CCC3)c2ccnc(-c3ccn[nH]3)c2n1` [Example 118, 4-(6,7-dihydro-5H-pyrrolo[1,2-a]imidazol-3-yl)-2-[(3R)-3-methylmorpholin-4-yl]-8-(1H-pyrazol-5-yl)-1,7-naphthyridine], which IC50 is on record?
A: 10.1 nM

Q: Which IC50 does the source give for `CCn1nc(C(F)(F)F)cc1-c1cc(N2CCOC[C@H]2C)nc2c(-c3ccn[nH]3)nccc12` [Example 119, 4-[1-ethyl-3-(trifluoromethyl)-1H-pyrazol-5-yl]-2-[(3R)-3-methylmorpholin-4-yl]-8-(1H-pyrazol-5-yl)-1,7-naphthyridine] here?
A: 11.7 nM

Q: With `COC(=O)c1ccc(-c2cc(N3CCOC[C@H]3C)nc3c(-c4ccn[nH]4)nccc23)[nH]1` [Example 120, Methyl 5-{2-[(3R)-3-methylmorpholin-4-yl]-8-(1H-pyrazol-5-yl)-1,7-naphthyridin-4-yl}-1H-pyrrole-2-carboxylate] as the compound, how does the IC50 read?
A: 13.1 nM

Q: How did the IC50 turn out when `C[C@@H]1COCCN1c1cc(-c2ccns2)c2ccnc(-c3ccn[nH]3)c2n1` [Example 121, 2-[(3R)-3-methylmorpholin-4-yl]-8-(1H-pyrazol-5-yl)-4-(1,2-thiazol-5-yl)-1,7-naphthyridine] was run?
A: 17.4 nM

Q: `C[C@@H]1COCCN1c1cc(-c2ccccc2N(C)C)c2ccnc(-c3ccn[nH]3)c2n1` [Example 122, N,N-dimethyl-2-{2-[(3R)-3-methylmorpholin-4-yl]-8-(1H-pyrazol-5-yl)-1,7-naphthyridin-4-yl}aniline] was tested. Which IC50 did it give?
A: 19.4 nM

Q: How did the IC50 turn out when `C[C@@H]1COCCN1c1cc(-c2ccc(F)cc2F)c2ccnc(-c3ccn[nH]3)c2n1` [Example 123, 4-(2,4-difluorophenyl)-2-[(3R)-3-methylmorpholin-4-yl]-8-(1H-pyrazol-5-yl)-1,7-naphthyridine] was run?
A: 21.3 nM

Q: Which IC50 does the source give for `CC(C)n1nccc1-c1cc(N2CCOC[C@H]2C)nc2c(-c3ccn[nH]3)nccc12` [Example 124, 4-(1-isopropyl-1H-pyrazol-5-yl)-2-[(3R)-3-methylmorpholin-4-yl]-8-(1H-pyrazol-5-yl)-1,7-naphthyridine] here?
A: 13.6 nM

Q: Which IC50 does the source give for `CCS(=O)(CC)=Nc1cc(N2CCOC[C@H]2C)nc2c(-c3ccn[nH]3)nccc12` [Example 126, 4-{[diethyl(oxido)-λ^6-sulfanylidene]amino}-2-[(3R)-3-methylmorpholin-4-yl]-8-(1H-pyrazol-5-yl)-1,7-naphthyridine] here?
A: 21.5 nM

Q: How did the IC50 turn out when `CC(C)COP(C)(=O)c1cc(N2CCOC[C@H]2C)nc2c(-c3ccn[nH]3)nccc12` (stereo partly drawn) [Example 127, Isobutyl methyl{2-[(3R)-3-methylmorpholin-4-yl]-8-(1H-pyrazol-5-yl)-1,7-naphthyridin-4-yl}phosphinate] was run?
A: 25.5 nM

Q: `C[C@@H]1COCCN1c1cc(C(C)(C)O)c2ccnc(-c3ccn[nH]3)c2n1` [Example 128, 2-{2-[(3R)-3-methylmorpholin-4-yl]-8-(1H-pyrazol-5-yl)-1,7-naphthyridin-4-yl}propan-2-ol] was tested. Which IC50 did it give?
A: 32.6 nM

Q: `CCC(O)(CC)c1cc(N2CCOC[C@H]2C)nc2c(-c3ccn[nH]3)nccc12` [Example 129, 3-{2-[(3R)-3-methylmorpholin-4-yl]-8-(1H-pyrazol-5-yl)-1,7-naphthyridin-4-yl}pentan-3-ol] was tested. Which IC50 did it give?
A: 35.3 nM

Q: With `C[C@@H]1COCCN1c1cc(-c2cncc(Cl)c2)c2ccnc(-c3ccn[nH]3)c2n1` [Example 130, 4-(5-chloropyridin-3-yl)-2-[(3R)-3-methylmorpholin-4-yl]-8-(1H-pyrazol-5-yl)-1,7-naphthyridine] as the compound, how does the IC50 read?
A: 21.6 nM

Q: How did the IC50 turn out when `C[C@@H]1COCCN1c1cc(-c2ccc(F)cc2N)c2ccnc(-c3ccn[nH]3)c2n1` [Example 131, 5-fluoro-2-{2-[(3R)-3-methylmorpholin-4-yl]-8-(1H-pyrazol-5-yl)-1,7-naphthyridin-4-yl}aniline] was run?
A: 23.1 nM

Q: How did the IC50 turn out when `C[C@@H]1COCCN1c1cc(-c2cccc(S(C)(=O)=O)c2F)c2ccnc(-c3ccn[nH]3)c2n1` [Example 132, 4-[2-fluoro-3-(methylsulfonyl)phenyl]-2-[(3R)-3-methylmorpholin-4-yl]-8-(1H-pyrazol-5-yl)-1,7-naphthyridine] was run?
A: 23.7 nM

Q: `C[C@@H]1COCCN1c1cc(-c2ccnn2C2COC2)c2ccnc(-c3ccn[nH]3)c2n1` [Example 133, 2-[(3R)-3-methylmorpholin-4-yl]-4-[1-(oxetan-3-yl)-1H-pyrazol-5-yl]-8-(1H-pyrazol-5-yl)-1,7-naphthyridine] was tested. Which IC50 did it give?
A: 27 nM

Q: How did the IC50 turn out when `C[C@@H]1COCCN1c1cc(-c2ccc(N3CCCC3)cc2F)c2ccnc(-c3ccn[nH]3)c2n1` [Example 134, 4-[2-fluoro-4-(pyrrolidin-1-yl)phenyl]-2-[(3R)-3-methylmorpholin-4-yl]-8-(1H-pyrazol-5-yl)-1,7-naphthyridine] was run?
A: 34.3 nM

Q: Which IC50 does the source give for `COCc1noc(C)c1-c1cc(N2CCOC[C@H]2C)nc2c(-c3ccn[nH]3)nccc12` [Example 135, 4-[3-(methoxymethyl)-5-methyl-1,2-oxazol-4-yl]-2-[(3R)-3-methylmorpholin-4-yl]-8-(1H-pyrazol-5-yl)-1,7-naphthyridine] here?
A: 32.9 nM
